Assay results published in US12215123B2, “Cordycepin-based derivatized compound with anti-tumor effect” (NANJING TECH UNIVERSITY, priority 2022, dated 2025).
Counter-ions that a name gives are not always drawn. Like-named read-outs stand apart in the source and are kept apart here.

What was measured:
[1] = tested on: gastric cancer cell line BGC-823; experiment: MTT proliferation, gastric cancer cell line BGC-823; assay type: cell-based; settings: read-out: IC50 (μM) in gastric cancer cells, BGC-823
Experimental: (§1) The method for determining inhibitory activities of the compounds on the proliferation of tumor cells by an MTT method is as follows: a bottle of cells in a good state in an exponential growth phase is added with 0.25% trypsin digestive juice, the digestion makes adherent cells fall off, with 2 to 4×10^4 cells/mL, and a cell suspension is prepared. The cell suspension is inoculated on a 96-well plate, with 90 μL/well, and cultured in a constant-temperature CO2 incubator for 24 hours. The prepared compounds are added for testing, with 10 μL/well, and cultured for 72 hours. An MTT reagent is added into a 96-well plate, with 10 μL/well, and reacts in an incubator for 4 hours to absorb a supernatant, and then dimethyl sulfoxide is added, with 100 μL/well. After a crystal is dissolved, an absorbance of each well at a wavelength of 570 nm is measured by an enzyme-linked immunosorbent assay instrument, and a cell inhibition rate is calculated. An S curve is made with a compound concentration and a corresponding inhibition rate. Therefore, IC50 of a corresponding compound is obtained.
(§2) Anti-tumor dose-effect relationship curves of the cordycepin and 40 compounds prepared in gastric cancer cell lines AGS and BGC-823 were analyzed by an MTT experimental method.

[2] = tested on: gastric cancer cell line AGS; experiment: MTT proliferation, gastric cancer cell line AGS; assay type: cell-based; settings: read-out: IC50 (μM) in gastric cancer cells, AGS
Experimental: as §1, §2

[3] = tested on: small cell lung cancer cell line H446; experiment: MTT proliferation, small cell lung cancer cell line H446; assay type: cell-based; settings: for IC50: read-out: IC50 (μM) of compounds in small cell lung cancer cells, H446
Experimental: as §1
(§3) Anti-tumor dose-effect relationship curves of cordycepin and compounds 1, 2, 4, 5, 7, 8, 10, 12, 16, 18, 21, 23, 24, 35 and 38 in small cell lung cancer cell lines H1048, H446 and H69 were analyzed by an MTT experimental method.

[4] = tested on: small cell lung cancer cell line H1048; experiment: MTT proliferation, small cell lung cancer cell line H1048; assay type: cell-based; settings: read-out: IC50 (μM) of compounds in small cell lung cancer cells, H1048
Experimental: as §1, §3

[5] = tested on: wild-type AB-line zebrafish; settings: 3 dpf to 5 dpf, 35° C.; survival rate>90% and teratogenicity<20%
Experimental: The zebrafish model is a wild-type AB-line zebrafish from College of Biotechnology and Pharmaceutical Engineering, Nanjing Tech University, and is carried out by a natural mating reproduction method, with 30 zebrafish of 2 dpf in each experimental group. The zebrafish is fed in fish culture water at 28° C. (water quality:200 mg of instant sea salt and CaCO3 are added into 1 L of reverse osmosis water with a conductivity of 480 uS/cm to 510 uS/cm, a pH value of 6.9 to 7.2, and a hardness of 53.7 mg/L to 71.6 mg/L), and the feeding management meets the requirements of international AAALAC certification.
240 3 dpf wild-type AB-line zebrafish were randomly selected in an 8-well plate, with 30 zebrafish in each well, and 3 mL of fish culture water in each well, the cordycepin was diluted according to a maximum lethal dose, dissolved in DMSO, and added into each well according to a concentration gradient (the maximum lethal dose was diluted by 100 times, in which 8 concentration gradient values were taken for the experiment), and meanwhile, a normal control group, a solvent control group G (5% glucose) and a solvent control group D (DMSO) were set. During the experiment, the zebrafish in each group were cultured at 35° C., after the zebrafish were treated to be 5 dpf with a sample to be tested, lethal and developmental malformation conditions of the zebrafish in different doses were investigated respectively, and a maximum tolerance dose (MTD) of the sample to be tested to normal zebrafish was determined under a concentration when survival rate>90% and teratogenicity<20%.

[6] = tested on: small cell lung cancer cell line H69; experiment: MTT proliferation, small cell lung cancer cell line H69; assay type: cell-based; settings: read-out: IC50 (μM) of compounds in small cell lung cancer cells, H69
Experimental: as §1, §3

[7] = tested on: B16-F10 melanoma cells; experiment: Mouse transplanted melanoma model; assay type: in vivo, C57BL/6j nude mice; settings: B16-F10 transplanted mice; for tumor volume: intragastric 500 ug/time/animal every other day, 24 days, blank 1760 mm^3
Experimental: The feeding of the mouse model in the drug evaluation follows that: mice are fed and treated in a laminar flow cabinet, with 5 nude mice in each cage, drinking water and feedstuffs are added once every 3 days, and paddings are replaced once a week; a number of mice kept in each cage is no more than 5, the mice in separate cages are kept in groups as far as possible, and the mice should not be kept in a single cage; the animal management must conform to the relevant national standards on animal feeding management, and the behavioral needs of animals should be concerned at the same time to avoid unnecessary stress; the normal physiological and behavioral needs of animals, such as defecation, urination, constant body temperature maintenance, normal activities, posture adjustment and reproduction are met; good ventilation and dry animals are kept; the animals can access to drinking water and food at will, and supplementation, replacement and cleaning operations are easily carried out; a solid and safe environment is provided to avoid accidents of animals, such as escaping or limb trapping in a gap; the animals are avoided from being damaged by sharp edges or protrusions; and the animals are not disturbed during observation.
A mouse transplanted melanoma model was established and a drug was evaluated. 2.5×10^5 B16-F10 melanoma cells were suspended in 100 μL of PBS to be inoculated into an outer side of thigh of left lower limb of C57BL/6j nude mice. One week later, when the transplanted tumor reached about 100 mm^3, the mice were randomly divided into ten groups, with 10 mice in each group, comprising a blank control group, a cordycepin group, a compound 13 group, a compound 14 group, a compound 17 group, a compound 19 group, a compound 22 group, a compound 26 group, a compound 29 group and a compound 34 group respectively. The blank control group was intragastrically administrated with a nutritional agent such as a corn steep liquor and DMSO as a solvent control every day for 24 consecutive days, and the compound groups were intragastrically administrated with corresponding compounds (500 ug/time/animal in all cases) every other day for 24 consecutive days. […] The mice were killed after the experiment, blood and corresponding tissue samples were collected, tumor bodies were immediately photographed and weighed, and some tumor tissues were fixed in a formalin solution to be further detected. Two vertical diameters (length and width) of the transplanted tumor were measured with a caliper every two days to calculate a size of the transplanted tumor, and a tumor value was calculated according to a formula: tumor volume (mm^3)=[…].

[8] = Homo sapiens, MTT, 72 hours, BGC-823
[9] = Homo sapiens, NCI-H446, 72 h, MTT, 72 hours, H446
[10] = Homo sapiens, NCI-H1048, 72 h, MTT, 72 hours, H1048

`CC(C)C(=O)OCOP(=O)(COC[C@@H]1CC(O)[C@H](n2cnc3c(N)ncnc32)O1)OCOC(=O)C(C)C` (stereo partly shown) [Compound 5] gave an IC50 [1, 8] of 91.5 µM, an IC50 ([2]; MTT, 72 hours, AGS) of 72.7 µM and an IC50 [3, 9] of 43.3 µM. The IC50 [4, 10] was 40.9 µM, the “Maximum tolerance dose (MTD) in zebrafish model” value (“Maximum tolerance dose (MTD)” below) [5] was 525 µM and the IC50 ([6]; MTT, 72 hours, H69) was 53.4 µM.

In the case of `O=C(Nc1ncnc2c1ncn2[C@@H]1O[C@H](CO)CC1O)C1CCCC1` (stereo partly shown) [Compound 11], the IC50 [1, 8] is reported as 10.3 µM, the IC50 ([2]; MTT, 72 hours, AGS) is reported as 13 µM and the “Maximum tolerance dose (MTD)” value [5] is reported as 75 µM.

In the case of `CC(C)(C)C(=O)OCOP(=O)(COC[C@@H]1CC(O)[C@H](n2cnc3c(N)nc(S)nc32)O1)OCOC(=O)C(C)(C)C` (stereo partly shown) [Compound 19], the IC50 [1, 8] is reported as 0.76 µM, the IC50 ([2]; MTT, 72 hours, AGS) is reported as 0.46 µM and the tumor volume [7] is reported as “about 240 mm^3”.

For `COC(=O)C(NP(=O)(OC[C@@H]1CC(O)[C@H](n2cnc3c(N)ncnc32)O1)Oc1ccccc1)C(C)C` (stereo partly shown) [Compound 6], the IC50 [1, 8] was 73.2 µM, the IC50 ([2]; MTT, 72 hours, AGS) was 66.8 µM and the “Maximum tolerance dose (MTD)” value [5] was 384 µM.

`CC(C)OC(=O)C(C)NP(=O)(COC[C@@H]1CC(O)[C@H](n2cnc3c(N)ncnc32)O1)Oc1ccccc1` (stereo partly shown) [Compound 7] gave an IC50 ([1]; Homo sapiens, BGC-823, 72 h) of 1.61 µM, an IC50 ([2]; 72 h) of 2.46 µM and an IC50 ([3]; Homo sapiens, NCI-H446, 72 h) of 20.5 µM. For the same molecule, the IC50 ([4]; Homo sapiens, NCI-H1048, 72 h) was 12.1 µM, the “Maximum tolerance dose (MTD)” value [5] was 62 µM and the IC50 ([6]; 72 h) was 9.59 µM.

`Nc1ncnc2c1ncn2[C@@H]1O[C@H](COP(=O)(O)O)CC1O` (stereo partly shown) [Compound 2, (5-(6-amino-9H-purine-9-yl)-4-hydroxytetrahydrofuran-2-yl)dihydromethyl phosphate] showed an IC50 [1, 8] of 209 µM, an IC50 ([2]; MTT, 72 hours, AGS) of 142 µM and an IC50 [3, 9] of 76.8 µM. The IC50 [4, 10] was 55.3 µM, the “Maximum tolerance dose (MTD)” value [5] was 845 µM and the IC50 ([6]; MTT, 72 hours, H69) was 50.2 µM.

For `COC(=O)C(C)NP(=O)(Oc1ccccc1)OC1C[C@@H](CO)O[C@H]1n1cnc2c(NC(=O)c3ccncc3)ncnc21` (stereo partly shown) [Compound 34, methyl(((5-(hydroxymethyl)-2-(6-(isonicotinamide)-9H-purin-9-yl)tetrahydrofuran-3-yl)oxy)(phenoxy)phosphoryl)alanine salt], the IC50 [1, 8] was 24.2 µM, the IC50 ([2]; MTT, 72 hours, AGS) was 19.4 µM and the tumor volume [7] was “about 240 mm^3”.

For `CC(C)(C)C(=O)OCOP(=O)(COC[C@]1(N=[N+]=[N-])CC(O)[C@H](n2cnc3c(N)ncnc32)O1)OCOC(=O)C(C)(C)C` (stereo partly shown) [Compound 37], the IC50 [1, 8] was 56.1 µM, the IC50 ([2]; MTT, 72 hours, AGS) was 64.2 µM and the “Maximum tolerance dose (MTD)” value [5] was 0.17 µM.

`Nc1nc(F)nc2c1ncn2C1OC(COC2CC(CO)C(O)C2O)CC1O` (stereo not shown) [Compound 36, 3-((5-(6-amino-2-fluoro-9H-purin-9-yl)-4-hydroxytetrahydrofuran-2-yl)methoxy)-5-(hydroxymethyl)cyclopentane-1,2-diol] was tested, and the IC50 [1, 8] was 90.2 µM, the IC50 ([2]; MTT, 72 hours, AGS) was 103 µM and the “Maximum tolerance dose (MTD)” value [5] was 0.02 µM.

In the case of `CC(C)OC(=O)C(C)NP(=O)(COC[C@H]1O[C@@H](n2cnc3c(N)ncnc32)C(O)[C@H]1N=[N+]=[N-])Oc1ccccc1` (stereo partly shown) [Compound 27, isopropyl((((5-(6-amino-9H-purine-9-yl)-3-azide-4-hydroxytetrahydrofuran-2-yl)methoxy)methyl)(phenoxy)phosphoryl)alanine ester], the IC50 ([1]; Homo sapiens, BGC-823, 72 h) is reported as 10.2 µM, the IC50 ([2]; 72 h) is reported as 8.42 µM and the “inhibition of melanoma” value ([7]; same method as Embodiment 46) is reported as “the Same Inhibition Effect as a Compound 26”.

In the case of `CC(C)Nc1nc2c(N)ncnc2n1[C@@H]1O[C@H](COP(=O)(O)O)CC1O` (stereo partly shown) [Compound 39, (5-(6-amino-8-(isopropylamino)-9H-purin-9-yl)-4-hydroxytetrahydrofuran-2-yl)dihydromethyl phosphate], the IC50 [1, 8] is reported as 167 µM, the IC50 ([2]; MTT, 72 hours, AGS) is reported as 187 µM and the “Maximum tolerance dose (MTD)” value [5] is reported as 28 µM.

Molecule “(5-(2-((E)-2-bromocarbonyl)-6-(isonicotinamide)-9H-purin-9-yl)-4-hydroxytetrahydrofuran-2-yl)dihydromethyl phosphate [Compound 35]” has an IC50 ([1]; MTT, 72 hours, BGC-823) of 71 µM, an IC50 ([2]; MTT, 72 hours, AGS) of 69.4 µM and an IC50 ([3]; MTT, 72 hours, H446) of 21.4 µM. For the same molecule, the “killing effect on the three lines of cells in vitro” value ([3]; stated in words for all three lines H1048, H446 and H69, MTT) was “strong killing effect”, the IC50 ([4]; MTT, 72 hours, H1048) was 32.6 µM and the “Maximum tolerance dose (MTD)” value [5] was 0.025 µM. For the same molecule, the IC50 ([6]; MTT, 72 hours, H69) was 21.5 µM.

For `CC(C)OC(=O)C(C)NP(=O)(COC[C@@H]1CC(O)[C@H](n2cnc3c(N)nc(F)nc32)O1)Oc1ccccc1` (stereo partly shown) [Compound 20, isopropyl((((5-(6-amino-2-fluoro-9H-purin-9-yl)-4-hydroxytetrahydrofuran-2-yl)methoxy)methyl)(phenoxy)phosphoryl)alanine ester], the IC50 ([1]; Homo sapiens, BGC-823, 72 h) was 1.37 µM, the IC50 ([2]; 72 h) was 0.94 µM and the “Maximum tolerance dose (MTD)” value [5] was 0.12 µM.
